Where “and” joins values, the source holds several entries; their conditions need not be identical. Identical values can stand only once.
Key:
rpsL gene [1] = assay: rpsL gene mutation rate at the cellular level (E. coli MF101 + pMOL21 cultured with mutagen, Amp/Str plate selection); conditions: for Mutation Rate of rpsL (mean ± SD): E. coli MF101 + pMOL21, mean of 4 experiments; for Mutation Rate of rpsL (single experiment): E. coli MF101 + pMOL21, single replicate; for genotoxicity / mutagenicity in words: NDEA, NDPA at 10 ppm, EB at lower concentrations
Procedure: The mutagenicity detection of nitrosamine compounds was carried out using the rpsL gene on plasmid pMOL21 as a selectable marker. The ribosomal protein S12 encoded by the rpsL gene can form a complex with streptomycin and enhance the ability of streptomycin to bind to 16 S rRNA, thereby preventing the initiation of […]. When the rpsL gene is mutated, the interaction between 16 S rRNA and streptomycin is disrupted, resulting in cell resistance to streptomycin.
We adopted Escherichia coli MF101, whose rpsL gene is mutated, so this strain has streptomycin resistance. The plasmid pMOL21 contains ampicillin as a selection marker and the correct rpsL gene. […] For specific information on strains and plasmids, please refer to [14].
E. coli MF101 + pMOL21 were cultured with different concentrations (10 ppm, 100 ppm, or 1000 ppm) of NDEA or NDPA. Ten hours after growth, the strains were collected and spread on plates containing ampicillin (Amp^+, 50 μg/mL) to determine the total number of transformed cells and spread on plates containing ampicillin and streptomycin (Amp^+, Str^+, 50 μg/mL) to determine the number of colonies with rpsL gene mutations. The mutation rate is the ratio of the number of mutant colonies to the total number of colonies. […] The experimental data and images were statistically analyzed by Origin2018 software.

rpsL gene [2] = assay: rpsL gene mutation rate in the RCA reaction system (phi29 DNA polymerase, mutagen added to the amplification reaction); assay type: biochemical, Escherichia coli; conditions: for Mutation Rate of rpsL in the RCA reaction (mean ± SD): mean of 4 experiments; for Mutation Rate of rpsL in the RCA reaction (single experiment): single replicate
Procedure: Heat denaturation of samples and annealing reaction system of primers and plasmids: 1 μL of 10 × phi29 DNA polymerase reaction buffer, 2.5 μL of 100 μM random primers, 1 μL of plasmid pMOL21 to be amplified, and 4.3 μL of ddH2O. The above system was heated at 95 °C for 3 min and then placed on ice for 15 min.
Amplification reaction system: 10 mM dNTP 0.5 μL, 100 × BSA 0.2 μL, phi29 DNA polymerase 0.5 μL to the above reaction solution (nitrosamine compounds or EB are added to the amplification reaction system), and then incubated at 30 °C overnight.
Heat-inactivated phi29 DNA polymerase: heat at 65 °C for 10 min.
We then determined the mutation rate of mutagen-induced rpsL gene mutations in the RCA system. In this experiment, we adopted the method of directly adding a mutagen to the RCA amplification reaction solution to provide a direct mutagenic environment for the amplification of the rpsL gene. This method avoids the possibility of affecting the mutagenicity of NDEA, NDPA, or EB during thermal denaturation.

rpsL gene [3] = assay: rpsL gene mutation rate in the PCR amplification system (Pfu DNA polymerase, mutagen added directly to the PCR system); assay type: biochemical, Escherichia coli; conditions: for Mutation Rate of rpsL in PCR (mean ± SD): mean of 4 experiments; for Mutation Rate of rpsL in PCR (single experiment): single replicate
Procedure: The PCR system was as follows: 10 × PCR buffer (Mg^2+) 5 μL, dNTP 2 μL, pMOL21 plasmid template 1 μL, upstream and downstream primers 1 μL, Pfu DNA polymerase 0.5 μL, ddH2O supplemented to […] (nitrosamine compounds were directly added to the PCR system).
The PCR program was as follows: predenaturation at 95 °C for 5 min, denaturation at 94 °C for 30 s, annealing at 55 °C for 30 s, extension at 72 °C for 120 s, 25 cycles, full extension at 72 °C for 10 min, and storage at 16 °C.
The PCR products were recovered and ligated with restriction enzymes (MscI, BamH1), transformed into MF101 strains, plated on ampicillin-containing plates to determine the total number of transformed cells, and plated on ampicillin- and streptomycin-containing plates to identify rpsL gene-mutated colonies.
We measured the mutation rate of mutagen-induced rpsL gene mutations in the PCR system. The mutagen was added directly to the PCR system to determine the mutation rate of the rpsL gene during DNA amplification.

[4] = 100 ppm mutagen in RCA reaction
[5] = 1000 ppm mutagen in RCA reaction

SMILES | Mutation Rate of rpsL (mean ± SD) (rpsL gene [1]; 10 ppm mutagen) | Mutation Rate of rpsL (single experiment) (rpsL gene [1]; 10 ppm mutagen) | Mutation Rate of rpsL (mean ± SD) (rpsL gene [1]; 100 ppm mutagen) | Mutation Rate of rpsL (single experiment) (rpsL gene [1]; 100 ppm mutagen) | Mutation Rate of rpsL (mean ± SD) (rpsL gene [1]; 1000 ppm mutagen) | Mutation Rate of rpsL (single experiment) (rpsL gene [1]; 1000 ppm mutagen) | genotoxicity / mutagenicity in words (rpsL gene [1]) | Mutation Rate of rpsL in the RCA reaction (mean ± SD) (rpsL gene [2]; 10 ppm mutagen in RCA reaction) | Mutation Rate of rpsL in the RCA reaction (single experiment) (rpsL gene [2]; 10 ppm mutagen in RCA reaction) | Mutation Rate of rpsL in the RCA reaction (mean ± SD) (rpsL gene [2]; [4]) | Mutation Rate of rpsL in the RCA reaction (single experiment) (rpsL gene [2]; [4]) | Mutation Rate of rpsL in the RCA reaction (mean ± SD) (rpsL gene [2]; [5]) | Mutation Rate of rpsL in the RCA reaction (single experiment) (rpsL gene [2]; [5]) | Mutation Rate of rpsL in PCR (mean ± SD) (rpsL gene [3]; 10 ppm mutagen in PCR system) | Mutation Rate of rpsL in PCR (single experiment) (rpsL gene [3]; 10 ppm mutagen in PCR system) | Mutation Rate of rpsL in PCR (mean ± SD) (rpsL gene [3]; 100 ppm mutagen in PCR system) | Mutation Rate of rpsL in PCR (single experiment) (rpsL gene [3]; 100 ppm mutagen in PCR system) | Mutation Rate of rpsL in PCR (mean ± SD) (rpsL gene [3]; 1000 ppm mutagen in PCR system) | Mutation Rate of rpsL in PCR (single experiment) (rpsL gene [3]; 1000 ppm mutagen in PCR system)
CCN(CC)N=O [NDEA, N-diethylnitrosamine] | 2.42 10^−6 and 2.42 ± 0.717 10^−6 | 1.44 10^−6 and 2.34 10^−6 and 2.95 10^−6 and 2.96 10^−6 | 3.76 10^−6 and 3.76 ± 0.852 10^−6 | 3.32 10^−6 and 2.81 10^−6 and 4.23 10^−6 and 4.69 10^−6 | 4.82 10^−6 and 4.82 ± 1.738 10^−6 | 2.89 10^−6 and 3.85 10^−6 and 6.02 10^−6 and 6.54 10^−6 | high genotoxicity | 2.49 10^−6 and 2.49 ± 0.692 10^−6 | 1.79 10^−6 and 2.02 10^−6 and 3.20 10^−6 and 2.96 10^−6 | 3.62 10^−6 and 3.62 ± 0.316 10^−6 | 3.47 10^−6 and 3.38 10^−6 and 3.55 10^−6 and 4.08 10^−6 | 5.54 10^−6 and 5.54 ± 2.444 10^−6 | 3.14 10^−6 and 3.96 10^−6 and 6.59 10^−6 and 8.46 10^−6 | 2.83 10^−6 and 2.83 ± 1.197 10^−6 | 1.28 10^−6 and 2.65 10^−6 and 4.11 10^−6 and 3.30 10^−6 | 4.51 10^−6 and 4.51 ± 1.314 10^−6 | 3.70 10^−6 and 3.09 10^−6 and 5.47 10^−6 and 5.77 10^−6 | 5.02 10^−6 and 5.02 ± 1.890 10^−6 | 3.16 10^−6 and 3.68 10^−6 and 6.23 10^−6 and 7.03 10^−6
CCCN(CCC)N=O [NDPA, N-dipropylnitrosamine] | 2.67 10^−6 and 2.67 ± 0.909 10^−6 | 2.34 10^−6 and 1.70 10^−6 and 2.80 10^−6 and 3.86 10^−6 | 4.75 10^−6 and 4.75 ± 1.417 10^−6 | 5.72 10^−6 and 2.66 10^−6 and 5.09 10^−6 and 5.53 10^−6 | 5.14 10^−6 and 5.14 ± 1.433 10^−6 | 7.05 10^−6 and 4.20 10^−6 and 5.41 10^−6 and 3.89 10^−6 | high genotoxicity | 2.98 10^−6 and 2.98 ± 0.585 10^−6 | 2.18 10^−6 and 3.59 10^−6 and 3.05 10^−6 and 3.10 10^−6 | 5.59 10^−6 and 5.59 ± 2.287 10^−6 | 4.90 10^−6 and 3.85 10^−6 and 8.96 10^−6 and 4.67 10^−6 | 6.2 10^−6 and 6.20 ± 1.110 10^−6 | 7.78 10^−6 and 5.18 10^−6 and 5.96 10^−6 and 5.87 10^−6 | 2.93 10^−6 and 2.93 ± 1.430 10^−6 | 1.83 10^−6 and 1.92 10^−6 and 3.05 10^−6 and 4.91 10^−6 | 4.98 10^−6 and 4.98 ± 1.330 10^−6 | 6.16 10^−6 and 3.08 10^−6 and 5.45 10^−6 and 5.21 10^−6 | 6.85 10^−6 and 6.85 ± 1.316 10^−6 | 7.72 10^−6 and 8.12 10^−6 and 6.32 10^−6 and 5.25 10^−6
CC[n+]1c(-c2ccccc2)c2cc(N)ccc2c2ccc(N)cc21 [EB, ethidium bromide, reference compound] | 3.71 10^−6 and 3.71 ± 0.502 10^−6 | 3.65 10^−6 and 4.38 10^−6 and 3.64 10^−6 and 3.16 10^−6 | 5.78 10^−6 and 5.78 ± 0.728 10^−6 | 6.50 10^−6 and 6.05 10^−6 and 4.78 10^−6 and 5.79 10^−6 | 7.87 10^−6 and 7.87 ± 1.842 10^−6 | 9.82 10^−6 and 6.71 10^−6 and 5.94 10^−6 and 9.01 10^−6 | strong mutagenicity | 3.81 10^−6 and 3.81 ± 0.335 10^−6 | 3.62 10^−6 and 4.31 10^−6 and 3.69 10^−6 | 6.38 10^−6 and 6.38 ± 0.915 10^−6 | 7.26 10^−6 and 6.66 10^−6 and 5.10 10^−6 and 6.49 10^−6 | 7.35 10^−6 and 7.35 ± 2.615 10^−6 | 6.86 10^−6 and 4.07 10^−6 and 10.34 10^−6 and 8.11 10^−6 | 4.06 10^−6 and 4.06 ± 0.471 10^−6 | 4.23 10^−6 and 4.47 10^−6 and 4.15 10^−6 and 3.38 10^−6 | 6.01 10^−6 and 6.01 ± 1.319 10^−6 | 5.99 10^−6 and 7.69 10^−6 and 4.47 10^−6 and 5.88 10^−6 | 10.35 10^−6 and 10.35 ± 1.143 10^−6 | 11.98 10^−6 and 9.32 10^−6 and 10.15 10^−6 and 9.94 10^−6
